# Measurements as given in patent US6737383B1, “Herbicidal oxadiazolidines” (priority 1999, dated 2004).
# Experiments:
# crabgrass = assay: Test B pre/postemergence crabgrass; format: in vivo, Digitaria sanguinalis
# In short: (§1)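 Herbicidal effect was estimated by eye on a ten-point control scale after plants spent twelve to sixteen days in a greenhouse following soil or foliar treatment. Foliar sprays targeted plants at one to four leaves; all doses were formulated in a non-phytotoxic solvent with surfactant.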
# morningglory = assay: Test B pre/postemergence morningglory; format: in vivo, Ipomoea hederacea
# In short: as §1
# giant foxtail = assay: Test B pre/postemergence giant foxtail; format: in vivo, Setaria faberii
# In short: as §1
# blackgrass = assay: Test B pre/postemergence blackgrass; format: in vivo, Alopecurus myosuroides
# In short: as §1
# purple nutsedge = assay: Test B pre/postemergence purple nutsedge; format: in vivo, Cyperus rotundus
# In short: as §1
# pigweed = assay: Test B pre/postemergence pigweed; format: in vivo, Amaranthus retroflexus
# In short: as §1
# corn = assay: Test B pre/postemergence corn; format: in vivo, Zea mays
# In short: as §1
# bedstraw = assay: Test B pre/postemergence bedstraw; format: in vivo, Galium aparine
# In short: as §1
# rape = assay: Test B pre/postemergence rape; format: in vivo, Brassica napus
# In short: as §1
# wild oat = assay: Test B pre/postemergence wild oat; format: in vivo, Avena fatua
# In short: as §1
# cocklebur = assay: Test B pre/postemergence cocklebur; format: in vivo, Xanthium strumarium
# In short: as §1
# velvetleaf = assay: Test B pre/postemergence velvetleaf; format: in vivo, Abutilon theophrasti
# In short: as §1
# surinam grass = assay: Test B pre/postemergence surinam grass; format: in vivo, Brachiaria decumbens
# In short: as §1
# wheat = assay: Test B pre/postemergence wheat; format: in vivo, Triticum aestivum
# In short: as §1
# soybean = assay: Test B pre/postemergence soybean; format: in vivo, Glycine max
# In short: as §1
# sugar beet = assay: Test B pre/postemergence sugar beet; format: in vivo, Beta vulgaris
# In short: as §1
# [1] = Postemergence, Rate 62 g/ha, scale 0 to 10, 0 is no effect, 10 is complete control
# [2] = Postemergence, Rate 125 g/ha, scale of 0 to 10 where 0 is no effect and 10 is complete control
# [3] = Postemergence, Rate 250 g/ha, scale of 0 to 10, 0 is no effect, 10 is complete control
# [4] = Preemergence, Rate 62 g/ha, scale of 0 to 10 where 0 is no effect and 10 is complete control
# [5] = Preemergence, Rate 125 g/ha, scale of 0 to 10 where 0 is no effect and 10 is complete control
# [6] = Preemergence, Rate 250 g/ha, scale 0 to 10 (0 no effect, 10 complete control)
# [7] = Preemergence, Rate 500 g/ha, scale of 0 to 10 where 0 is no effect and 10 is complete control
# [8] = Rate 500 g/ha, Postemergence, scale 0 to 10, 0 is no effect, 10 is complete control
structure (smiles),measurement,setting,value
CC(C)N(C(=O)n1oc(=O)n(CCF)c1=O)c1ccc(F)cc1F [Compound 670],"Plant response rating, Crabgrass",crabgrass; [1],9
same,Crabgrass plant response rating,crabgrass; [2],8
same,Crabgrass plant response rating,crabgrass; [3],8
same,Crabgrass plant response rating,crabgrass; [4],10
same,"Plant response rating, Crabgrass",crabgrass; [5],10
same,"Plant response rating, Crabgrass",crabgrass; [6],10
same,"Plant response rating, Crabgrass",crabgrass; [7],10
same,Crabgrass plant response rating,crabgrass; [8],8
same,"Plant response rating, Morningglory",morningglory; [1],3
same,Morningglory plant response rating,morningglory; [2],3
same,Morningglory plant response rating,morningglory; [3],6
same,Morningglory plant response rating,morningglory; [4],2
same,"Plant response rating, Morningglory",morningglory; [5],7
same,"Plant response rating, Morningglory",morningglory; [6],8
same,"Plant response rating, Morningglory",morningglory; [7],8
same,Morningglory plant response rating,morningglory; [8],4
same,"Plant response rating, Giant foxtail",giant foxtail; [1],9
same,Giant foxtail plant response rating,giant foxtail; [2],9
same,Giant foxtail plant response rating,giant foxtail; [3],9
same,Giant foxtail plant response rating,giant foxtail; [4],10
same,"Plant response rating, Giant foxtail",giant foxtail; [5],10
same,"Plant response rating, Giant foxtail",giant foxtail; [6],10
same,"Plant response rating, Giant foxtail",giant foxtail; [7],10
same,Giant foxtail plant response rating,giant foxtail; [8],9
same,"Plant response rating, Blackgrass",blackgrass; [1],2
same,Blackgrass plant response rating,blackgrass; [2],4
same,Blackgrass plant response rating,blackgrass; [3],5
same,Blackgrass plant response rating,blackgrass; [4],8
same,"Plant response rating, Blackgrass",blackgrass; [5],9
same,"Plant response rating, Blackgrass",blackgrass; [6],10
same,"Plant response rating, Blackgrass",blackgrass; [7],10
same,Blackgrass plant response rating,blackgrass; [8],5
same,"Plant response rating, Nutsedge",purple nutsedge; [1],0
same,Nutsedge plant response rating,purple nutsedge; [2],4
same,"Plant response rating, Nutsedge",purple nutsedge; [5],5
same,"Plant response rating, Nutsedge",purple nutsedge; [6],8
same,"Plant response rating, Nutsedge",purple nutsedge; [7],10
same,Nutsedge plant response rating,purple nutsedge; [8],5
same,"Plant response rating, Redroot pigweed",pigweed; [1],7
same,Redroot pigweed plant response rating,pigweed; [2],7
same,Redroot pigweed plant response rating,pigweed; [4],9
same,"Plant response rating, Redroot pigweed",pigweed; [5],10
same,"Plant response rating, Redroot pigweed",pigweed; [6],10
same,"Plant response rating, Redroot pigweed",pigweed; [7],10
same,Redroot pigweed plant response rating,pigweed; [8],9
same,"Plant response rating, Corn",corn; [1],3
same,Corn plant response rating,corn; [2],4
same,Corn plant response rating,corn; [3],5
same,Corn plant response rating,corn; [4],2
same,"Plant response rating, Corn",corn; [5],4
same,"Plant response rating, Corn",corn; [6],8
same,"Plant response rating, Corn",corn; [7],9
same,Corn plant response rating,corn; [8],6
same,Bedstraw plant response rating,bedstraw; [4],8
same,"Plant response rating, Bedstraw",bedstraw; [5],8
same,"Plant response rating, Bedstraw",bedstraw; [6],9
same,"Plant response rating, Bedstraw",bedstraw; [7],9
same,Bedstraw plant response rating,bedstraw; [8],8
same,"Plant response rating, Rape",rape; [1],0
same,Rape plant response rating,rape; [2],2
same,Rape plant response rating,rape; [4],8
same,"Plant response rating, Rape",rape; [5],9
same,"Plant response rating, Rape",rape; [6],10
same,"Plant response rating, Rape",rape; [7],10
same,Rape plant response rating,rape; [8],4
same,"Plant response rating, Wild oats",wild oat; [1],0
same,Wild oats plant response rating,wild oat; [2],0
same,Wild oats plant response rating,wild oat; [4],7
same,"Plant response rating, Wild oats",wild oat; [5],9
same,"Plant response rating, Wild oats",wild oat; [6],9
same,"Plant response rating, Wild oats",wild oat; [7],9
same,Wild oats plant response rating,wild oat; [8],3
same,"Plant response rating, Cocklebur",cocklebur; [1],2
same,Cocklebur plant response rating,cocklebur; [2],2
same,Cocklebur plant response rating,cocklebur; [3],2
same,Cocklebur plant response rating,cocklebur; [4],0
same,"Plant response rating, Cocklebur",cocklebur; [5],0
same,"Plant response rating, Cocklebur",cocklebur; [7],2
same,Cocklebur plant response rating,cocklebur; [8],3
same,"Plant response rating, Velvetleaf",velvetleaf; [1],5
same,Velvetleaf plant response rating,velvetleaf; [2],5
same,Velvetleaf plant response rating,velvetleaf; [4],6
same,"Plant response rating, Velvetleaf",velvetleaf; [5],8
same,"Plant response rating, Velvetleaf",velvetleaf; [6],8
same,"Plant response rating, Velvetleaf",velvetleaf; [7],8
same,Velvetleaf plant response rating,velvetleaf; [8],4
same,"Plant response rating, B. signalgrass",surinam grass; [1],3
same,"Plant response rating, B. signalgrass",surinam grass; [2],7
same,B. signalgrass plant response rating,surinam grass; [3],7
same,B. signalgrass plant response rating,surinam grass; [4],8
same,"Plant response rating, B. signalgrass",surinam grass; [5],9
same,"Plant response rating, B. signalgrass",surinam grass; [6],10
same,"Plant response rating, B. signalgrass",surinam grass; [7],10
same,B. signalgrass plant response rating,surinam grass; [8],8
same,"Plant response rating, Wheat",wheat; [1],0
same,Wheat plant response rating,wheat; [2],0
same,Wheat plant response rating,wheat; [4],7
same,"Plant response rating, Wheat",wheat; [5],9
same,"Plant response rating, Wheat",wheat; [6],9
same,"Plant response rating, Wheat",wheat; [7],9
same,Wheat plant response rating,wheat; [8],4
same,"Plant response rating, Soybean",soybean; [1],3
same,Soybean plant response rating,soybean; [2],2
same,Soybean plant response rating,soybean; [4],0
same,"Plant response rating, Soybean",soybean; [5],3
same,"Plant response rating, Soybean",soybean; [6],8
same,"Plant response rating, Soybean",soybean; [7],9
same,Soybean plant response rating,soybean; [8],5
same,"Plant response rating, Sugarbeets",sugar beet; [1],0
same,Sugarbeets plant response rating,sugar beet; [2],2
same,Sugarbeets plant response rating,sugar beet; [4],8
same,"Plant response rating, Sugarbeets",sugar beet; [5],9
same,"Plant response rating, Sugarbeets",sugar beet; [6],9
same,"Plant response rating, Sugarbeets",sugar beet; [7],9
same,Sugarbeets plant response rating,sugar beet; [8],2
